Assay results taken from paper PMC10518717, “High-Throughput Screening and Proteomic Characterization of Compounds Targeting Myeloid-Derived Suppressor Cells” (Molecular & Cellular Proteomics : MCP, 2023).

Test system: human PMN-MDSC
Experiment: Human PMN-MDSC assay (PMN-MDSC/CD8+ T cell/DC coculture, IFNγ HTRF)
Type: cell-based
Conditions: 10 μM
Source text: CD34+ cells were isolated from fresh human blood from healthy donors, obtained from the Health Services unit of the Healthcare Business of Merck KGaA, Darmstadt, Germany. First, peripheral blood mononuclear cells (PBMC) were isolated via density centrifugation, and then the target cells were isolated via magnetic bead labeling using the EasySep Human CD34 Positive Selection Kit II (Stemcell Technologies #17856). After isolation, the CD34+ cells were cultivated in cultivation medium (StemSpan SFEM II (Stemcell Technologies #09655) + 10% (1×) StemSpan CD34+ Expansion (Stemcell Technologies #02691)) for 10 to 12 days. At that point, the media was exchanged for fresh […] medium (Gibco #31870), supplemented with 10% FCS, 2 mM L-glutamine, 100 U/ml penicillin/streptomycin, 1 mM sodium-pyruvate, 1 mM non-essential amino acids, 50 μM ß-mercaptoethanol, and 100 ng/ml human G-CSF (PeproTech, AF-300-23), and the cells were incubated for 10 days in order to derive human PMN-MDSC.
Monocytes were isolated from fresh human blood from healthy donors, obtained from Health Services unit of the Healthcare Business of Merck KGaA, Darmstadt, Germany. […]
PMN-MDSC and DC were differentiated as described above. […] At that point, the supernatant was transferred and IFNγ was measured using a human INFγ HTRF kit (Cisbio #62[…]) following standard assay protocol provided by the manufacturer. The data was analyzed using Genedata software (GeneData Inc, https://www.genedata.com/) with 0% defined by the DMSO-treated wells and 100% effect defined by the wells without PMN-MDSC. […]
After confirming the physiological and pharmacological suitability of the NUP-MDSC model, we developed a high-throughput screen for the identification of potential MDSC modulators (Fig. 4A and supplemental Fig. S3). […] After 72 h, T cell activity was assessed by recording T cell proliferation and IFN-γ secretion. […] Compounds were declared hits if reversing the suppression effect of NUP-MDSC on T cells with ≥50% in either readout resulting in 392 hit compounds (Fig. 4B). […]

SMILES: CCOC(=O)c1nnn(-c2nn3nnnc3c3ccccc23)c1C [compound 2]
- % effect on IFNγ secretion (mild effect in 4 of 23 donor combinations): < 40%
- activity on IFNγ secretion (some donors of 23 donor combinations): no activity
- % effect on IFNγ secretion (strong effect in 5 of 23 donor combinations): > 40%
